# Reference: ChEMBL document CHEMBL1132823, “Fatty acid amide hydrolase substrate specificity” (Bioorg Med Chem Lett, 2000)
# Molecular target: T1, Fatty-acid amide hydrolase 1 (Rattus norvegicus) (UniProt P97612)
# T1 sequence (whole entry): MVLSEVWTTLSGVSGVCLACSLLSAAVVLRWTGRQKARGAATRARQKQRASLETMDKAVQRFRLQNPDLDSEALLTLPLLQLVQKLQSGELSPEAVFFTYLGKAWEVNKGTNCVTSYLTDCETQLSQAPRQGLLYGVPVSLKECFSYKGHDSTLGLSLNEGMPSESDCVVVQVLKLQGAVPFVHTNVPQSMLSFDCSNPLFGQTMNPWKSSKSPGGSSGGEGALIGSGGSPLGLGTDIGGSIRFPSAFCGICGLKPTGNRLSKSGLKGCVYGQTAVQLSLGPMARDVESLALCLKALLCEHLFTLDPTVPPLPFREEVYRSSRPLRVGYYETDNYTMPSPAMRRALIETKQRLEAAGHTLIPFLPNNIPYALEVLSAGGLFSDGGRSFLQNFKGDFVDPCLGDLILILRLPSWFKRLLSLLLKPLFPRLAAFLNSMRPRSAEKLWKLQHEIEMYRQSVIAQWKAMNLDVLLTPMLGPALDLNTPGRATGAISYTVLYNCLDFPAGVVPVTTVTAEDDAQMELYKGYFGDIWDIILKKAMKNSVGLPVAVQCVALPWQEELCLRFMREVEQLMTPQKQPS
# Test: Relative rate of fatty acid amide hydrolase hydrolysis of compound compared to that of oleamide.
row,Structure (SMILES),Relative rate of hydrolysis
1,CCCCC/C=C/C/C=C/C/C=C/CCCCCCC(N)=O,1.38
2,CCCCCCCC/C=C/CCCCCCNC(N)=O,< 0.001
3,CCCCCCCC/C=C/CCCCCCCCCCCCCC(N)=O,0.82
4,CCCCCCCC/C=C/CCCCCCC(C)C(N)=O (configuration not stated),0.07
5,CCCCCCCCCCC/C=C\CCCCC(N)=O,0.91
6,CCCCC/C=C/C/C=C/CCCCCCCC(N)=O (stereo in doubt; 21),1.04
7,CC/C=C/C/C=C/C/C=C/CCCCCCCCCC(N)=O,1.4
8,CCCC/C=C\CCCCCCCCCCCC(N)=O,0.82
9,CCCCCCCCCC/C=C\CCCCCC(N)=O,1.09
10,CCCCCCCCCCCCCCCC(N)=O,0.72
11,CCCCCCCC/C=C\CCCCCCCC(N)=O,1
12,CCCCCCCCCCCCCC(N)=O,0.83
13,CC/C=C/C/C=C/C/C=C/CCCCCCCC(N)=O,1.38
14,CCCCCCCC/C=C\CCCCCCCCCC(N)=O,1.05
15,CCCCC/C=C\CCCCCCCCCCC(N)=O,0.92
16,CCCCC/C=C/C/C=C/CCCCCCCC(N)=O (stereo in doubt; 22),0.54

row,Structure (SMILES),Relative rate of hydrolysis
1,CCCCCCCC/C=C/CCCCCCCCCCCC(N)=O,0.83
2,CCCCCCCC/C=C/CCCCCCC(C)(C)C(N)=O,0.03
3,CCCCC/C=C/C/C=C/C/C=C/C/C=C/CCCC(N)=O,3.11
4,CCCCCCCCCCCCCCCCCC(N)=O,0.69
5,CC/C=C\CCCCCCCCCCCCCC(N)=O,0.9
6,CCCCCCCC/C=C/CCCCCCCC(N)=O,0.52
7,CCCCCC/C=C\CCCCCCCCCCCC(N)=O,1.03
8,CCCCC/C=C/C/C=C/CCCCCCCCCC(N)=O,1.27
9,CCCCCCCCCCCCCC/C=C\CCCC(N)=O,1.16
10,CC/C=C/C/C=C/C/C=C/C/C=C/C/C=C/C/C=C/CCC(N)=O,0.82
11,CCCCCCCCCCC/C=C\CCCCCCC(N)=O,1.12
12,CCCCCC/C=C/CCCCCCCC(N)=O,0.79
13,CCCC/C=C/CCCCCCCC(N)=O,0.86
14,CCCCCCCC/C=C/CCCCCCOC(N)=O,0.1
15,CCCCC/C=C\C/C=C\C/C=C\C/C=C\CCCC(=O)NCCO,1.68
16,C1CCCCCCNCCCCC1,0.74
